The values below come from EP4745134A1 (Jiangsu Yahong Meditech Co., Ltd., priority 2023, dated 2025).

For one assay, the target named is PRMT5-MTA (Homo sapiens, UniProt O14744). Put plainly: Enzymatic inhibitory activity against PRMT5-MTA (AlphaScreen). It is filed as biochemical. The gist of the method: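 PRMT5/[…] (1 nM) was preincubated for 30 min at room temperature with 1 µM […] and 2.5 µM SAM, then exposed to compound (10-point, 3-fold from 1000 nM) for 15 min at 23 °C. Histone H4 substrate (5 nM) was added and reacted for 45 min at 23 °C. Symmetric dimethyl-R3 H4 was detected by AlphaScreen and IC50 calculated.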
A general note: In Alpha technology, singlet oxygen from a donor bead excites a nearby acceptor bead.

The next assay deals with HCT116-WT cells. Put plainly: Inhibitory activity against cell proliferation (CellTiter Glo, 6 days), HCT116-WT. The assay is classed as cell-based. Particulars: HCT116-WT cells, 6 days, CellTiter Glo, read-out: HCT116-WT IC50. The gist of the method:
(§1)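 Following overnight attachment of 250 cells per well in McCoy's 5A medium with 10% FBS, compounds spanning 8 concentrations (4-fold, top 10000 nM) were applied for 6 days. Growth inhibition IC50 was derived from luminescent ATP signal.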
On the technique in general: In ATP-based viability assays light output follows the ATP content of the culture.

A further assay relates to HCT116 MTAP KO cells. Description: Inhibitory activity against cell proliferation (CellTiter Glo, 6 days), HCT116 MTAP KO. It is filed as cell-based. To be noted: for IC50: HCT116 MTAP KO cells, 6 days, CellTiter Glo, read-out: HCT116 MTAP KO IC50; for Selectivity HCT 116-WT/ HCT116 MTAP KO: ratio of IC50 HCT116-WT / HCT116 MTAP KO. The gist of the method:
as §1

Each structure is given as a SMILES string. Read-outs that look alike come from different tables or passages of the source.

PRMT5-MTA, sequence (O14744 whole entry): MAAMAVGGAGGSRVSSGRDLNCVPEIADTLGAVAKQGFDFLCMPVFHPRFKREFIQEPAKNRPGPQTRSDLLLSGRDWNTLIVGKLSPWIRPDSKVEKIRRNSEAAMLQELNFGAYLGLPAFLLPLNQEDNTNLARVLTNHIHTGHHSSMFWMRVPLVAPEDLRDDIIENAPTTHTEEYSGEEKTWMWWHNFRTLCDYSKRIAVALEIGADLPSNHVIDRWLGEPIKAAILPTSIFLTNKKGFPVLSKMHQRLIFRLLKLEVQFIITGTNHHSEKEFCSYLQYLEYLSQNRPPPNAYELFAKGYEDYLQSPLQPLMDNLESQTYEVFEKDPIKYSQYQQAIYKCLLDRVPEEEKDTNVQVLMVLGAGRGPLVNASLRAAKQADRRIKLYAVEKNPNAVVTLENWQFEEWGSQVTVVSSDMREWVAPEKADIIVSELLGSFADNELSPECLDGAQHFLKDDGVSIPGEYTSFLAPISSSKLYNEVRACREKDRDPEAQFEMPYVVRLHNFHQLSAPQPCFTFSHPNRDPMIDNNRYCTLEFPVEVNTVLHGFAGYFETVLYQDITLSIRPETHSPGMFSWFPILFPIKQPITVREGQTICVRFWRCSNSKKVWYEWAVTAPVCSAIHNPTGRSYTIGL
PRMT5-MTA, sequence (Q9BQA1 whole entry partner): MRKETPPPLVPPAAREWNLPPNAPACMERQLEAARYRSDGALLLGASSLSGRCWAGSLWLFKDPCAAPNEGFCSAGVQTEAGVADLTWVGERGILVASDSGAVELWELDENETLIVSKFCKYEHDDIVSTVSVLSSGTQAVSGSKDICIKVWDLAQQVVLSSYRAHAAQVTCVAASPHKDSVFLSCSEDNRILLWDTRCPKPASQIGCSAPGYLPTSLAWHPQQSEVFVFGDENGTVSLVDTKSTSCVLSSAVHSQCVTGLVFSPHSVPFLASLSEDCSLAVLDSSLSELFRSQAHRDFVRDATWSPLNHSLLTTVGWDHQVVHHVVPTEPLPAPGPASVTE

The IC50 is the midpoint of a concentration-inhibition curve. For the compound `Cc1ncc(-c2ccc(CN(C(=O)c3ccc4nc(N)c(C)cc4c3)N(C)c3ncccn3)nc2)s1` [Example 151, 2-amino-N',3-dimethyl-N-((5-(2-methylthiazol-5-yl)pyridin-2-yl)methyl)-N'-(pyrimidin-2-yl)quinoline-6-carbohydrazide], the IC50 on PRMT5-MTA (read-out: IC50) stood at 6.4 nM; in the assay on HCT116-WT cells (144 h) it was 601 nM; in the assay on HCT116 MTAP KO cells (Homo sapiens, HCT-116, 144 h), 19 nM. Moreover, the “Selectivity HCT 116-WT/ HCT116 MTAP KO” value in the assay with HCT116 MTAP KO cells is 31.63.

On to `Cc1cc2cc(C(=O)N(Cc3ccc(C4=CCOCC4)cn3)N(C)c3ncccn3)ccc2nc1N` [Example 159, 2-amino-N-((5-(3,6-dihydro-2H-pyran-4-yl)pyridin-2-yl)methyl)-N',3-dimethyl-N' -(pyrimidin-2-yl)quinoline-6-carbohydrazide], for which the IC50 on PRMT5-MTA (read-out: IC50) stood at 3.3 nM; in the assay on HCT116-WT cells (144 h) it was 2070 nM; in the assay with HCT116 MTAP KO cells (Homo sapiens, HCT-116, 144 h), 72 nM. Also, the “Selectivity HCT 116-WT/ HCT116 MTAP KO” value in the assay on HCT116 MTAP KO cells was 28.76.

In the case of `Cc1cc2nc(N)c3cnn(C)c3c2cc1C(=O)N1CCCN1c1ncc(-c2cscn2)cc1F` [Example 486, (4-amino-1,7-dimethyl-1H-pyrazolo[4,3-c]quinolin-8-yl)(2-(3-fluoro-5-(thiazol-4-yl)pyridin-2-yl)pyrazolidin-1-yl)methanone], the IC50 at PRMT5-MTA (read-out: IC50) turned out to be 6.8 nM; in the assay with HCT116-WT cells (144 h) it was 1400 nM; with HCT116 MTAP KO cells (Homo sapiens, HCT-116, 144 h), 34 nM. Further, the “Selectivity HCT 116-WT/ HCT116 MTAP KO” value in the assay on HCT116 MTAP KO cells was 41.12.

Regarding `COC1CN(C(=O)c2cc3c(cc2C)nc(N)c2cnn(C)c23)N(c2ccccc2F)C1` (stereo not drawn) [Example 436], the IC50 against PRMT5-MTA amounted to 4.8 nM; in the assay on HCT116-WT cells (144 h), 734 nM; in the assay with HCT116 MTAP KO cells (Homo sapiens, HCT-116, 144 h), 27 nM. Further, the “Selectivity HCT 116-WT/ HCT116 MTAP KO” value in the assay on HCT116 MTAP KO cells is reported as 27.19.

Regarding `[2H]C([2H])([2H])OC1CN(C(=O)c2cc3c(cc2C)nc(N)c2cnn(C)c23)N(c2ncccc2F)C1` (stereo not drawn) [Example 454, (4-amino-1,7-dimethyl-1H-pyrazolo[4,3-c]quinolin-8-yl)(2-(3-fluoropyridin-2-yl)-4-(methoxy-D3)pyrazolidin-1-yl)methanone], the IC50 was determined as 5.9 nM on PRMT5-MTA (read-out: IC50); 752 nM in the assay with HCT116-WT cells (144 h); 36 nM in the assay on HCT116 MTAP KO cells (Homo sapiens, HCT-116, 144 h). Besides, the “Selectivity HCT 116-WT/ HCT116 MTAP KO” value with HCT116 MTAP KO cells was 20.89.

Consider `COC1CN(C(=O)c2cc3c(cc2C)nc(N)c2cnn(C)c23)N(c2ncc(Cl)cc2F)C1` (stereo not drawn) [Example 441, (4-amino-1,7-dimethyl-1H-pyrazolo[4,3-c]quinolin-8-y1)(2-(5-chloro-3-fluoropyridin-2-yl)-4-methoxypyrazolidin-1-yl)met hanone], for which the IC50 at PRMT5-MTA (read-out: IC50) was 7.2 nM; in the assay with HCT116-WT cells (144 h), 1790 nM; with HCT116 MTAP KO cells (Homo sapiens, HCT-116, 144 h), 48 nM. In addition, the “Selectivity HCT 116-WT/ HCT116 MTAP KO” value in the assay with HCT116 MTAP KO cells came out at 37.31.

For `Cc1cc2nc(N)c3cnn(C)c3c2cc1C(=O)N1CC(F)(F)CN1c1ncccc1F` [Example 455, (4-amino-1,7-dimethyl-1H-pyrazolo[4,3-c]quinolin-8-yl)(4,4-difluoro-2-(3-fluoropyridin-2-yl)pyrazolin-1-yl)methanone], the IC50 was 10.1 nM at PRMT5-MTA (read-out: IC50); 305 nM in the assay on HCT116-WT cells (144 h); 9.5 nM in the assay on HCT116 MTAP KO cells (Homo sapiens, HCT-116, 144 h). Moreover, in the assay on HCT116 MTAP KO cells, the “Selectivity HCT 116-WT/ HCT116 MTAP KO” value is 32.11.

As for `Cc1cc2nc(N)c3cnn(C)c3c2cc1C(=O)N1CCC(C)N1c1ncccn1` (stereo not drawn) [Example 374, (4-amino-1,7-dimethyl-1H-pyrazolo[4,3-c]quinolin-8-yl)(3-methyl-2-(pyrimidin-2-yl)pyrazolidin-1-yl)methanone], the IC50 is 8.1 nM at PRMT5-MTA (read-out: IC50); > 10000 nM in the assay on HCT116-WT cells (144 h); 210 nM in the assay with HCT116 MTAP KO cells (Homo sapiens, HCT-116, 144 h).

Take `Cc1cc2cc(C(=O)N(Cc3ccc(-c4cnc5ccccc5c4)cn3)N(C)c3ncccn3)ccc2nc1N` [Example 197, 2-amino-N',3-dimethyl-N'-(pyrimidin-2-yl)-N-((5-(quinolin-3-yl)pyridin-2-yl)methyl)quinoline-6-carbohydrazide]: the IC50 on PRMT5-MTA (read-out: IC50) was determined as 1.1 nM; with HCT116-WT cells (144 h), 645 nM; with HCT116 MTAP KO cells (Homo sapiens, HCT-116, 144 h), 34 nM. In the assay on HCT116 MTAP KO cells, the “Selectivity HCT 116-WT/ HCT116 MTAP KO” value turned out to be 18.97.

As for `COc1ccc(-c2ccc(CN(C(=O)c3ccc4nc(N)c(C)cc4c3)N(C)c3ncccn3)nc2)cn1` [Example 174, 2-amino-N-((6'-methoxy-[3,3'-bipyridine] -6-yl)methyl)-N',3-dimethyl-N'-(pyrimidin-2-yl)quinoline-6-carbohydrazide], the IC50 turned out to be 2.3 nM at PRMT5-MTA (read-out: IC50); 1080 nM with HCT116-WT cells (144 h); 41 nM with HCT116 MTAP KO cells (Homo sapiens, HCT-116, 144 h). In addition, the “Selectivity HCT 116-WT/ HCT116 MTAP KO” value with HCT116 MTAP KO cells is 26.22.

As to `CCN(C(=O)c1cc2c(cc1F)nc(N)c1cnn(C)c12)N(C)c1ccc(F)cn1` [Example 97, 4-amino-N-ethyl-7-fluoro-N'-(5-fluoropyridin-2-yl)-N',1-dimethyl-1H-pyrazolo[4,3-c]quinoline-8-carbohydrazide], the IC50 at PRMT5-MTA (read-out: IC50) was 5.1 nM; in the assay on HCT116-WT cells (144 h), > 10000 nM; with HCT116 MTAP KO cells (Homo sapiens, HCT-116, 144 h) it was 246 nM.

Turning to `Cc1cc2cc(C(=O)N(Cc3ccc(C(F)(F)F)cn3)N(C)c3nccc4sccc34)ccc2nc1N` [Example 271, 2-amino-N',3-dimethyl-N'-(thieno[3,2-c]pyridin-4-yl)-N-((5-(trifluoromethyl)pyridin-2-yl)methyl)quinoline-6-carbohydrazide], the IC50 amounted to 2.7 nM on PRMT5-MTA (read-out: IC50); 1190 nM with HCT116-WT cells (144 h); 89 nM in the assay on HCT116 MTAP KO cells (Homo sapiens, HCT-116, 144 h). Besides, in the assay on HCT116 MTAP KO cells, the “Selectivity HCT 116-WT/ HCT116 MTAP KO” value is reported as 13.42.

For the compound `Cc1cc2nc(N)c3cnn(C)c3c2cc1C(=O)N1C[C@H](C)CN1c1ncccc1F` (single isomer, unassigned) [Example 465], the IC50 was determined as 3.4 nM on PRMT5-MTA (read-out: IC50); 1040 nM in the assay with HCT116-WT cells (144 h); 23 nM in the assay on HCT116 MTAP KO cells (Homo sapiens, HCT-116, 144 h). Also, the “Selectivity HCT 116-WT/ HCT116 MTAP KO” value in the assay on HCT116 MTAP KO cells worked out at 45.35.

Regarding `CN(c1ccccc1)N(Cc1ccc(C(F)(F)F)cn1)C(=O)c1ccc2nc(N)c3cnn(C)c3c2c1` [Example 15, 4-amino-N',1-dimethyl-N'-phenyl-N-((5-(trifluoromethyl)pyridin-2-yl)methyl)-1H-pyrazolo[4,3-c]quinoline-8-carbohydrazide], the half-inhibitory concentration (IC50) at PRMT5-MTA (read-out: IC50) stood at 3.7 nM; with HCT116-WT cells, 475 nM; in the assay with HCT116 MTAP KO cells, 26 nM. The “Selectivity HCT 116-WT/ HCT116 MTAP KO” value in the assay on HCT116 MTAP KO cells is listed as 18.27.

As to `[2H]C([2H])([2H])n1ncc2c(N)nc3cc(C)c(C(=O)N4CC(C)CN4c4ncccc4F)cc3c21` (stereo not drawn) [Example 507, (4-amino-7-methyl-1-(methyl-D3)-1H-pyrazolo[4,3-c]quinolin-8-yl)(2-(3-fluoropyridin-2-yl)-4-methylpyrazolidin-1-yl)methanone], the IC50 on PRMT5-MTA (read-out: IC50) was 10.3 nM; in the assay with HCT116-WT cells (144 h), 1680 nM; in the assay with HCT116 MTAP KO cells (Homo sapiens, HCT-116, 144 h), 38 nM. Also, the “Selectivity HCT 116-WT/ HCT116 MTAP KO” value in the assay with HCT116 MTAP KO cells was found to be 44.34.

In the case of `Cc1cc2cc(C(=O)N(Cc3cc(C(F)(F)F)ccn3)N(C)c3ncccn3)ccc2nc1N` [Example 61, 2-amino-N',3-dimethyl-N'-(pyrimidin-2-yl)-N-((4-(trifluoromethyl)pyridin-2-yl)methyl)quinoline-6-carbohydrazide], the IC50 at PRMT5-MTA (read-out: IC50) turned out to be 2.4 nM; in the assay with HCT116-WT cells (144 h), 2390 nM; with HCT116 MTAP KO cells (Homo sapiens, HCT-116, 144 h), 126 nM. For the same compound, in the assay with HCT116 MTAP KO cells, the “Selectivity HCT 116-WT/ HCT116 MTAP KO” value is on record as 18.95.

On to `C=C1CN(C(=O)c2cc3c(cc2Cl)nc(N)c2cnn(C)c23)N(c2ccccc2F)C1` [Example 431, (4-amino-7-chloro-1-methyl-1H-pyrazolo [4,3-c]quinolin-8-yl)(2-(2-fluorophenyl)-4-methylenepyrazolidin-1-yl)methanone], for which the IC50 at PRMT5-MTA (read-out: IC50) is 5.4 nM; with HCT116-WT cells (144 h), 248 nM; in the assay on HCT116 MTAP KO cells (Homo sapiens, HCT-116, 144 h) it was 10 nM. The “Selectivity HCT 116-WT/ HCT116 MTAP KO” value with HCT116 MTAP KO cells was determined as 24.80.
